Results reported in patent US20180153995A1, “USE OF ANTIMICROBIAL POLYMERS FOR RE-SENSITIZATION OF MICROORGANISMS UPON EMERGENCE OF RESISTANCE TO ANTI-MICROBIAL AGENTS” (Technion Research & Development Foundation Limited, priority 2008, published 2018).
Values joined by “and” are separate entries in the source; they are usually repeats but may differ in a detail not shown here. Equal values may be shown once.

Experiments:
[1] = system: E. coli K-12 efflux knockout mutant; type: cell-based, Escherichia coli; details: E. coli K-12 strain with decreased levels of efflux pumps
Protocol: (§1) MICs were determined by microdilution susceptibility testing in 96-well plates (by Nunc) using inocula of 10^5 bacteria per ml. Cell populations were evaluated by optical density measurements at 620 nm and were calibrated against a set of standards. Hundred (100) μl of a bacterial suspension were added to 100 μl of culture medium (control) or to 100 μl of culture medium containing various polymer concentrations in 2-fold serial dilutions. Inhibition of proliferation was determined by optical density measurements at 620 nm after an incubation period of 24 hours at 37° C.

E. coli CI14213 = type: cell-based, Escherichia coli
Protocol: as §1

MRSA 15903 = assay: microbe, parasite or virus in culture; type: cell-based, Staphylococcus aureus; details: S. aureus CI-15903; +polymer (⅓ MIC) C12(5-ene)KKNC12KNH2
Protocol: The fractionary inhibitory (FIC) concentration index for combinations of two antimicrobial agents was calculated as follows: FIC index=FICA+FICB=A/MICA+B/MICB where A and B are the MIC values of agent A and agent B in the combination, MICA and MICB are the MICs of agent A and agent B alone, and FICA and FICB are the FICs of agent A and agent B.
The FIC indexes were interpreted as follows: less than 0.5 indicates a clear re-sensitizing effect; from 0.5 to 4 indicates a marginal or null re-sensitizing effect; and over 4 indicates antagonism.
Experimental data for FIG. 4 were obtained as follows.

[2] = system: E. coli N282 (L4 mutation); type: cell-based, Escherichia coli; details: E. coli N282; polymer alone
Escherichia coli strains = type: cell-based; details: isogenic pair of E. coli K-12 strains
Protocol: as §1

[3] = system: E. coli N281 (L22 mutation); type: cell-based, Escherichia coli; details: E. coli N281; polymer alone
[4] = system: E. coli K-12 resistant wild type; type: cell-based, Escherichia coli; details: E. coli K-12 multi-resistant wild type

In the case of `CCCCCCCCCCCC(=O)N[C@@H](CCCCN)C(=O)NCCCCCCCC(=O)N[C@@H](CCCCN)C(=O)NCCCCCCCC(=O)N[C@@H](CCCCN)C(=O)NCCCCCCCC(=O)N[C@@H](CCCCN)C(=O)NCCCCCCCC(=O)N[C@@H](CCCCN)C(=O)NCCCCCCCC(=O)N[C@@H](CCCCN)C(=O)NCCCCCCCC(=O)N[C@@H](CCCCN)C(=O)NCCCCCCCC(=O)N[C@@H](CCCCN)C(N)=O` [C12K(NC8K)7NH2], the “effect of polymer on antibiotic MICs” value [1] is reported as “not altered significantly”, the MIC of polymer (E. coli CI14213; CI14213) is reported as 3.1 µM and the “re-sensitizing effect of polymer on oxacillin” value (E. coli CI14213; E. coli CI14213, polymer well below MIC (up to ⅛ MIC), 24 hours) is reported as “endowed potency to oxacillin”. For the same molecule, the MIC (MRSA 15903) was 12.5 µg/mL, the MIC of polymer [2] was 1.6 µM and 3.1 µM and the MIC of polymer (Escherichia coli strains) was 3.125 µg/mL. For the same molecule, the MIC of polymer [3] was 3.1 µM and the “effect of polymer on antibiotics potency” value [4] was “enhanced antibiotics potency”.
